Source: PMC7076710, “Synthesis, Identification, and Structure–Activity Relationship Analysis of GATA4 and NKX2-5 Protein–Protein Interaction Modulators” (Journal of Medicinal Chemistry, 2019)

Tested on: COS-1 cells
Assay: LDH assay (necrosis)
Assay type: cell-based

Compound	LDH.1µM (COS-1 cells)	LDH.3µM (COS-1 cells)	LDH.10µM (COS-1 cells)	LDH.30µM (COS-1 cells)	LDH.1µM	LDH.3µM	LDH.10µM	LDH.30µM
CCN(CC)c1ccc(NC(=O)c2c(-c3ccccc3)noc2C)cc1 [Compound 1, N-[4-(Diethylamino)phenyl]-5-methyl-3-phenylisoxazole-4-carboxamide]	1.16	0.89	-0.76	-0.02				
Cc1onc(-c2ccccc2)c1C(=O)N(C1=NC(C)CS1)c1ccc(Cl)cc1 (stereo not shown) [Compound 2]	1.6	1.4	1.08	1.02				
Cc1onc(-c2ccccc2)c1COc1ccc(C(=O)OCCC#N)cc1 [Compound 35a, 2-Cyanoethyl 4-[(5-Methyl-3-phenylisoxazol-4-yl)methoxy]benzoate]					0.51	1.44	1.72	1
CCN(CC)c1ccc(NC(=O)c2cnsc2)cc1 [Compound 47s]					3.18	0.65	1.08	0.91
CCC(=O)N(Cc1ccc(N(CC)CC)cc1)c1c(-c2ccccc2)noc1C [Compound 58]					0.36	-0.8	-1.03	1.47
COc1ccc(-c2cc(NC(=O)c3ccc(C(C)(C)C)cc3)n[nH]2)cc1 [Compound 72]					2.2	0.82	0.22	-0.27
N-[4-(Diethylamino)phenyl]-3-methyl-5-(4-methyl-1,2,3-thiadiazol-5-yl)isoxazole-4-carboxamide [Compound 47c]					-0.01	-0.17	0.1	-0.11
